# Biological target: T1, full-length AR (Homo sapiens, UniProt P10275, T878A)
# T1 construct: calculated based on normalized full-length AR and AR-V7 band intensity; endogenous in cells; host or cells: LNCaP, CWR22Rv1, VCaP
# T1 sequence (P10275 1-920 T878A): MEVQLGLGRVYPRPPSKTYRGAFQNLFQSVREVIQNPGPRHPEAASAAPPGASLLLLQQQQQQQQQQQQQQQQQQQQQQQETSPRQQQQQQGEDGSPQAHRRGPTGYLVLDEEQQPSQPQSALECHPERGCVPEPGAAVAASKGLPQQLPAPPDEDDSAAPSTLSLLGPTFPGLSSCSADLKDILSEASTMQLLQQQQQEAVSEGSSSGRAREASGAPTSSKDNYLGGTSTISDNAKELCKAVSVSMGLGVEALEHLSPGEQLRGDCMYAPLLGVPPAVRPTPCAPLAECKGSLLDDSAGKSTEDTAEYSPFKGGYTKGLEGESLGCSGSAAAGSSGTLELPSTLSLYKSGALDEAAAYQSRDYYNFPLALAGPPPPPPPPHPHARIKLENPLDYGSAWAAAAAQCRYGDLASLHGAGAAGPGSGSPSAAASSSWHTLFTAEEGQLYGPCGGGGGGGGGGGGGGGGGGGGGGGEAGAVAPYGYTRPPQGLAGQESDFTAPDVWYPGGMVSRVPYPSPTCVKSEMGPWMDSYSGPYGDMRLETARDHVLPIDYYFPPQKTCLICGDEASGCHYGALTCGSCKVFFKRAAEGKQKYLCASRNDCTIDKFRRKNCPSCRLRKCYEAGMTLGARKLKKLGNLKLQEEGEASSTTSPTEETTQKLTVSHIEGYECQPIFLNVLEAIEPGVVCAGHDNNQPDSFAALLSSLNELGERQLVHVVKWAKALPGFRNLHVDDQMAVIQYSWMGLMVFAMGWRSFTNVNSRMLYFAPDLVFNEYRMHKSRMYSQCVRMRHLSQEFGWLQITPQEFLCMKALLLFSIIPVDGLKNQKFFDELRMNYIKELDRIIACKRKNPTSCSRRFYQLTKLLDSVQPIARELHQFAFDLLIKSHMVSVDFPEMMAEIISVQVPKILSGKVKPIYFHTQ
# Assay: AR degradation by western blot in prostate cancer cell lines
# Assay type: cell-based
# Conditions: LNCaP cells; for DC50: 24 h treatment; for Dmax at 20 µM: maximum degradation at 20 μM
# Protocol: To obtain total lysates, cells were lysed in RIPA buffer (50 mM Tris–HCl pH 8.0, 150 mM NaCl, 1% NP-40, 0.5% Na-deoxycholate, 0.5% SDS plus protease inhibitors). The lysates were resolved by SDS-polyacrylamide gel electrophoresis, and the protein expression was analyzed by western blotting using primary antibodies against AR (Millipore Cat# 06-680, RRID:AB_310214), AR-V7 (RevMAb Biosciences Cat# 31-1109-00, RRID:AB_2716436), GAPDH (Cell Signaling Technology Cat# 2118, RRID:AB_561053) and Actin (Sigma–Aldrich Cat# A5441, RRID:AB_476744). pLenti4/TO/Flag-AR or pLenti4/TO/Flag-TC-AR plasmid was co-transfected with HA-ubiquitin plasmid into 293T cells. 24 h after transfection, the cells were treated with 10 μM of the PROTAC compounds for 16 h, followed by 4-h treatment of 5 μM MG132. The cells were lysed with lysis buffer (50 mM Tris–HCl pH7.5, 150 mM NaCl, 0. 5% Triton X-100, 10% glycerol, 1 mM EDTA plus protease inhibitors) containing 1 ng/mL of N-ethylmaleimide, followed by immunoprecipitation with anti-Flag M2 (Sigma–Aldrich Cat# F3165, RRID:AB_259529) antibody. The ubiquitinated AR was then detected by western blotting using anti-HA (Sigma–Aldrich Cat# H3663, RRID:AB_262051) antibody.
# Fig. 1 PROTAC-based AR degraders ITRI-90, ITRI-125 and ITRI-126 reduce AR and AR-V7 proteins in prostate cancer cell lines. (a) Chemical structure of the PROTAC AR degraders. (b) Representative western blots of AR protein levels in LNCaP, CWR22Rv1 and VCaP cells treated with the PROTAC degraders for 24 h. AR was detected by N-terminal antibody which also detects C-terminal truncated AR-V(ΔLBD) in CWR22Rv1 cells. AR-V7 specific antibody was used for AR-V7 detection. 4%–12% gradient gel was used to separate different species of AR-V(ΔLBD) near 75 kDa in CWR22Rv1 cell lysates. DC50 indicating the concentration required to achieve 50% degradation, was calculated based on normalized full-length AR and AR-V7 band intensity. Dmax is the maximum degradation achieved at 20 μM compound treatment. TEXT PRINTED IN THE PICTURE: (a) ITRI-90: AR DC50 (μM) LNCaP: 2.12 ± 0.93; AR DC50 (μM) CWR22Rv1: 5.73 ± 2.28; AR DC50 (μM) VCaP: 8.67 ± 4.87; AR-V7 DC50 (μM) CWR22Rv1: 4.72 ± 2.52; AR-V7 DC50 (μM) VCaP: 0.29 ± 0.15; AR Dmax (%) LNCaP: 88; AR Dmax (%) CWR22Rv1: 98; AR Dmax (%) VCaP: 90; AR-V7 Dmax (%) CWR22Rv1: 100; AR-V7 Dmax (%) VCaP: 63 | (a) ITRI-125: AR DC50 (μM) LNCaP: 6.10 ± 4.43; AR DC50 (μM) CWR22Rv1: 6.64 ± 1.87; AR DC50 (μM) VCaP: 9.05 ± 3.75; AR-V7 DC50 (μM) CWR22Rv1: 1.89 ± 1.06; AR-V7 DC50 (μM) VCaP: 0.52 ± 0.37; AR Dmax (%) LNCaP: 71; AR Dmax (%) CWR22Rv1: 96; AR Dmax (%) VCaP: 85; AR-V7 Dmax (%) CWR22Rv1: 99; AR-V7 Dmax (%) VCaP: 67 | (a) ITRI-126: AR DC50 (μM) LNCaP: 3.41 ± 3.13; AR DC50 (μM) CWR22Rv1: 0.11 ± 0.02; AR DC50 (μM) VCaP: 0.851 ± 0.43; AR-V7 DC50 (μM) CWR22Rv1: 0.011 ± 0.003; AR-V7 DC50 (μM) VCaP: 0.43 ± 0.19; AR Dmax (%) LNCaP: 99; AR Dmax (%) CWR22Rv1: 74; AR Dmax (%) VCaP: 94; AR-V7 Dmax (%) CWR22Rv1: 91; AR-V7 Dmax (%) VCaP: 82
compound,measurement,value
"Cc1ncsc1-c1ccc(CNC(=O)[C@@H]2C[C@H](O)CN2C(=O)[C@@H](NC(=O)COCCCCOc2ccc(C3CCN(C4=Nn5c(nnc5C(F)(F)F)CC4)CC3)cc2)C(C)(C)C)cc1 [ITRI-90, (2S,4S)-1-((S)-3,3-dimethyl-2-(2-(4-(4-(1-(3-(trifluoromethyl)-7,8-dihydro-[1,2,4]triazolo[4,3-b]pyridazin-6-yl)piperidin-4-yl)phenoxy)butoxy)acetamido)butanoyl)-4-hydroxy-N-(4-(4-methylthiazol-5-yl)benzyl)pyrrolidine-2-carboxamide]",DC50,2.12 ± 0.93 µM
same,Dmax at 20 µM,88%
"Cc1ncsc1-c1ccc(CNC(=O)[C@@H]2C[C@H](O)CN2C(=O)[C@@H](NC(=O)COCCCCCCOc2ccc(C3CCN(C4=Nn5c(nnc5C(F)(F)F)CC4)CC3)cc2)C(C)(C)C)cc1 [ITRI-125, (2S,4S)-1-((S)-3,3-dimethyl-2-(2-(6-(4-(1-(3-(trifluoromethyl)-7,8-dihydro-[1,2,4]triazolo[4,3-b]pyridazin-6-yl)piperidin-4-yl)phenoxy)hexyloxy)acetamido)butanoyl)-4-hydroxy-N-(4-(4-methylthiazol-5-yl)benzyl)pyrrolidine-2-carboxamide]",DC50,6.1 ± 4.43 µM
same,Dmax at 20 µM,71%
"O=C1CCC(N2Cc3c(NC(=O)COCCCCOc4ccc(C5CCN(C6=Nn7c(nnc7C(F)(F)F)CC6)CC5)cc4)cccc3C2=O)C(=O)N1 (stereo not drawn) [ITRI-126, N-(2-(2,6-dioxopiperidin-3-yl)-1-oxoisoindolin-4-yl)-2-(4-(4-(1-(3-(trifluoromethyl)-7,8-dihydro-[1,2,4]triazolo[4,3-b]pyridazin-6-yl)piperidin-4-yl)phenoxy)butoxy)acetamide]",DC50,3.41 ± 3.13 µM
same,Dmax at 20 µM,99%
